Assay results reported in patent US11318206B2, “Compounds and methods for trans-membrane delivery of molecules” (Aposense Ltd., priority 2014, dated 2022).
Entries after “also recorded” stand apart in the source; their conditions may differ.

Key:
[1] = Stability under oligonucleotide de-protection conditions, HPLC/MS; format: physicochemical; conditions: ammonium hydroxide at 65° C., samples at 15 minutes, 1 and 2 hours
From the text: Synthesis of the Conjugates of the Invention customarily involves protecting the nucleobases of the synthesized oligonucleotides by chemical groups. For example, adenine is often protected by a benzoyl protecting group, guanine by isobutyryl, and cytosine by acetyl. These protecting groups should be removed at the end of synthesis, in order to obtain a functional oligonucleotide. This removal is customarily performed in strong basic conditions. For example, the standard protocol of IDT (Iowa, USA) for removal of the protecting groups during synthesis of oligonucleotides comprises incubation with ammonium hydroxide at 65° C. degrees, for 2 hours. In order to evaluate whether the Compound of the Invention can sustain de-protection in these harsh conditions, a model system was constructed, based on the following Model Compound A, having the following structure:
Two mg of this compound were incubated in the above standard conditions used for deprotection. Samples were drawn after 15 minutes, 1 and 2 hours incubation, and evaluated by HPLC/MS, exploring and analyzing the formation of new peaks. […] Therefore, this analogue of the compound of the Invention manifested stability in these relatively harsh basic conditions.

EGFP gene = EGFP gene silencing in primary culture of hepatocytes of transgenic mice; format: cell-based, mouse; conditions: EGFP dsRNA, two MNMs, complex with Histone H2A (2:1 Histone/RNA); 40 nM; 72 hours
Experimental: Double-stranded RNA sequence, as specified in Example 7 was attached to two MNMs according to Formula (VIIa), wherein a=2, and k=1, designated Apo-Si—C4. The conjugate (40 nM) was then incubated with the histone 2A protein (Histone H2A, Molecular Weight 14 kDa; New England Biolabs, Inc.) for 30 minutes (at a 2:1 Histone/RNA ratio) for generation of RNA+MNM+protein complex. The complex was then incubated with cells of primary culture of hepatocytes of transgenic mice, expressing the EGFP gene. After 72 hours, fluorescence of the EGFP signal was quantified utilizing an ELISA reader, as described in Example 7. […] As evident from the results, this complex was capable of effectively crossing the cell membranes, and moreover, exerting a beneficial biological performance in gene silencing. By comparison to the performance of the Control complex, which was devoid of MNMs, the observed results can be attributed solely to the MNMs of the invention.

3T3-EGFP cells [2] = assay: Uptake of Conjugate into 3T3-EGFP cells with dipole potential modulators phloretin or 6-KC; format: cell-based, mouse
From the text: Phloretin is an inhibitor of the membrane dipole potential and the related IMEF, while 6-keto-cholestanol (6-KC) is a potent enhancer of the IMEF). Therefore, a potential relationship between the effects of the dipole potential modulators phloretin or 6-KC, and the uptake level of the above Conjugate of the Invention (comprising the Apo-Si—C4 MNM, linked to dsDNA, of the sequence: Sense:/5′-MNM/TT/iCy3/[…] (SEQ ID. No. 9); Anti-sense:/5′-MNM/[…] (SEQ ID. No. 10); wherein Cy3 is a red fluorophore); was examined.
One day before the experiment, 3T3-EGFP cells in the exponential growth phase were plated in 6-well plates, at a density of 5×10^5 cells/well, with DMEM complete medium, without antibiotics. Cells were incubated with phloretin 750 μM at 37° C., or 6-KC 100 μM at 37° C., for one hour. The 6-KC was then washed away, while the phloretin was kept in the medium. The Conjugate as described above was diluted in 500 μl/well of Opti-Mem, and added to the above cells, at a final concentration of 40 nM for two hours. Delivery of the Conjugate was evaluated at 2 hours post transfection. At that time point, cells were trypsinized, supplemented with Hank's Buffered Salt Solution (HBSS buffer; Biological Industries, Israel) and centrifuged for 5 min at 1200 rpm. Cells were then re-suspended with Hank's Buffered Salt Solution, and subjected to analysis using FACSAria III Cell Sorter (BD Biosciences, San Jose, Calif., USA), utilizing the Cell Diva software. For each sample, a total of 10^4 events were collected.

3T3 cells = assay: Delivery of 58-mer dsDNA Conjugate into 3T3 cells, ELISA reader (Example 8); format: cell-based, murine; conditions: Cy3 58-mer dsDNA, two MNMs
Experimental: (§1) 3T3 cells and C26 cells were grown and prepared as described in Example 5 above. Cells were incubated for 1, 2, and 24 hours with a Conjugate comprising a 58-mer double-stranded (ds)DNA, linked to Cy3 fluorophore, and lined to two Apo-Si—C4 moieties. Two concentrations of the Conjugate were tested: 40 nM and 100 nM. Analysis comprised fluorescent microscopy and signal quantification by ELISA reader, as described in Example 5 above. An identical 58-mer dsDNA, not linked to E moieties, served as Control.

C26 cells = assay: Delivery of 58-mer dsDNA Conjugate into C26 cells, ELISA reader (Example 8); format: cell-based, murine; conditions: Cy3 58-mer dsDNA, two MNMs
Experimental: as §1

3T3-EGFP cells [3] = assay: Structure/function analysis of polarity: uptake into 3T3-EGFP cells, FACS; format: cell-based, mouse; conditions: Cy3 58-mer DNA conjugate, 40 nM
Experimental: For this purpose, two analogous Conjugates were constructed and evaluated: • (i). A Conjugate of dsDNA, linked to E and E′, each has the structure as set forth in Formula (VIIa); designated Apo-Si—C4: […]
Both these MNM moieties were linked to a 58-mer DNA oligonucleotide, labeled with the Cy3-fluorophore, and were subjected to FACS analysis.
One day before the experiment, 3T3-EGFP cells in the exponential growth phase were plated in 6-well plates, at a density of 0.2-0.5×10^5 cells/well, with DMEM complete medium, without antibiotics. Each of the Cy3-labeled oligonucleotides (with or without the MNMs) was diluted in 500 μl/well of Opti-Mem, and added to the cells, at a final concentration of 40 nM. Delivery of the Conjugates was evaluated at 2-24 hours of incubation. Following the incubation period, cells were trypsinized, supplemented with Hank's Buffered Salt Solution (HBSS buffer; Biological Industries, Israel) and centrifuged for 5 min at 1100 rpm. […] Detection and quantification of the Cy3-positive cell population were performed using measurements of the fluorescence intensity in the cells incubated with the Apo-Si-4C Conjugate, relative to that of the cells incubated with the Control A Conjugate.

Row | Compound | Degradation under de-protection conditions [1] | Reduction of the EGFP signal vs control complex without MNMs (EGFP gene) [%] | Uptake by cells after 6-keto-cholestanol (Cy3 fluorescence microscopy) (3T3-EGFP cells [2]; 40 nM, 2 hours, pre-incubation with 6-KC 100 μM for one hour) | Cells labeled (FACS) (3T3-EGFP cells [2]; Cy3 dsDNA, MNMs, 40 nM, 2 hours, no modulator) [%] | Cells manifesting binding of the Conjugate (FACS) (3T3-EGFP cells [2]; Cy3 dsDNA, MNMs, 40 nM, 2 hours, phloretin 750 μM) [%] | Uptake by cells after phloretin (flow cytometry) (3T3-EGFP cells [2]; pre-incubation with phloretin) | Ratio of signal intensity of the Conjugate versus control dsDNA devoid of MNMs (3T3 cells; 40 nM) [fold] | Ratio of signal intensity of the Conjugate versus control dsDNA devoid of MNMs (3T3 cells; 100 nM) [fold] | Ratio of signal intensity of the Conjugate versus control dsDNA devoid of MNMs (C26 cells; 40 nM) [fold] | Ratio of signal intensity of the Conjugate versus control dsDNA devoid of MNMs (C26 cells; 100 nM) [fold] | Cy3 fluorescent signal in cells (FACS) (3T3-EGFP cells [3]; 24 hours of incubation) | Cy3 fluorescent signal in cells (FACS) (3T3-EGFP cells [3]; two hours of incubation)
1 | CCCCCCN(C(=O)Oc1ccccc1)[C@H]1CCSSC1 [Compound A] | no signs of degradation | – | – | – | – | – | – | – | – | – | – | –
2 | [2H]CCCCOc1ccc2c(c1)CCC1C2CCC2(C)C(OCCCOC(C(F)(F)F)(C(F)(F)F)C(F)(F)F)CCC12 (stereo not drawn) [Apo-Si—C4] | – | 76 | markedly higher uptake; also recorded: markedly increased uptake | 68 | 1.5 | marked reduction in the uptake | 104 | 101 | 80 | 72 | further augmented | strong Cy-3 fluorescent signal
